Values of other authors in paper PMC11481577, “Allosteric coupling of substrate binding and proton translocation in MmpL3 transporter from Mycobacterium tuberculosis” (mBio, 2024).

Target: MmpL3
Conditions: previously measured; read-out: affinity to MmpL3; cited from earlier work

| Substance | Kd |
| --- | --- |
| phosphatidylethanolamine [PE] | 19.5 ± 6.3 µM |
| trehalose monomycolates [TMM] | 3.7 ± 1.3 µM |
